Reference: patent publication US6184365A, “Anthracycline derivatives having 4-amino-2,4,6-trideoxy-2 fluoro-α-L-talopyranosyl group” (priority 1996, dated 2001)
In brackets after ≈: the same amount, converted by molar mass. Entries after “also recorded” stand apart in the source; their conditions may differ.

Tests used:
Leukemia L-1210 cells = assay: Antitumor activity against leukemia in CDF1 mice inoculated with Leukemia L-1210 cells; assay type: in vivo, mouse; settings: for Increase (%) in life-span (T/C, %): i.p., once a day for 9 days, as hydrochloride; for antitumor activity against mouse Leukemia L-1210 cell compared with adriamycin: low dosages
Method: Thus, to evaluate the antitumor effects of the novel compounds of this invention against experimental tumors in animals, CDF1 mice (four mice per group) were intraperitoneally inoculated with cells of Leukemia L-1210 at an amount of 1×10^5 cells/mouse. Since an elapse of 24 hours from the inoculation of the leukemia cells, a test compound of this invention was administered intraperitoneally to the mice under test once a day for consecutive 9 days, with the test compound being given as its hydrochloride in the form of a solution in a physiological saline. […] In the meanwhile, mice of the control group (the untreated group) were administered only with physiological saline after the inoculation of the L-1210 cells. During the observation period, the number of the surviving mice was counted for both the treated group and the control group, and the mean survival days of mice of both the treated group and the control group were calculated. Then, the percentages (%) of the increase in the life-span of the treated mice was estimated, as T/C (%), in terms of the mean survival day (C) of the untreated mice of the control group and the mean survival day (T) of the treated mice of the treated group. For comparison purposes, similar tests were effected using daunomycin (as hydrochloride) and adriamycin (as hydrochloride). The mean survival day of mice of the control group (the untreated group) was 8 to 9 days, and the mean survival day of mice of the comparative groups having received the administration of daunomycin or adriamycin usually varied dependently on the dosage of the compound tested.
Incidentally, in respect of the fractional numbers parenthesized below the numerical values of increase (%) in the life-span, the denominator of the fraction denotes the number of mice tested in one test group but the numerator of the fraction denotes the number of mice which survived for 60 days or longer.

[1] = tested on: human chronic myelogenous leukemia (K562); assay: Growth inhibition of human chronic myelogenous leukemia (K562); assay type: cell-based; settings: for IC50: Homo sapiens, K562, 72 hours, read-out: IC50
Method: (§1) Adriamycin was used as a comparative compound and was tested in the same manner as above.
(§2) The different kinds of human cancer cells tested were six kinds indicated below, including human chronic myelogenous leukemia (K562), human vaginal melanoma (HMV-1), human nasopharyngeal carcinoma (KB), human gastric adenocarcinoma (MKN-1), human lung non-small cell carcinoma (PC-14) and human bladder carcinoma (T24).

[2] = tested on: human vaginal melanoma (HMV-1); assay: Growth inhibition of human vaginal melanoma (HMV-1); assay type: cell-based; settings: HMV-1, 72 hours, read-out: IC50
Method: as §1, §2

[3] = tested on: human nasopharyngeal carcinoma (KB); assay: Growth inhibition of human nasopharyngeal carcinoma (KB); assay type: cell-based; settings: KB, 72 hours, read-out: IC50
Method: as §1, §2

[4] = tested on: human gastric adenocarcinoma (MKN-1); assay: Growth inhibition of human gastric adenocarcinoma (MKN-1); assay type: cell-based; settings: for IC50: Homo sapiens, MKN-1, 72 hours, read-out: IC50
Method: as §1, §2

[5] = tested on: human lung non-small cell carcinoma (PC-14); assay: Growth inhibition of human lung non-small cell carcinoma (PC-14); assay type: cell-based; settings: for IC50: Homo sapiens, PC-14, 72 hours, read-out: IC50
Method: as §1, §2

[6] = tested on: human bladder carcinoma (T24); assay: Growth inhibition of human bladder carcinoma (T24); assay type: cell-based; settings: for IC50: Homo sapiens, T24, 72 hours, read-out: IC50
Method: as §1, §2

[7] = tested on: mouse leukemia P388 cells; assay: Growth inhibition of mouse leukemia P388 cells; assay type: cell-based; settings: P388, 72 hours, read-out: IC50
Method: as §1

[8] = tested on: adriamycin-resistant P388 cells (P388/ADR); assay: Growth inhibition of adriamycin-resistant P388 cells (P388/ADR); assay type: cell-based, mouse; settings: for IC50: Mus musculus, 72 hours, read-out: IC50
Method: as §1

Solubility in water = assay type: physicochemical
[9] = tested on: various human cancer cells; assay: in vitro tests against various human cancer cells; assay type: cell-based; settings: for antitumor or anticancer activity compared with adriamycin: human cancer cells as well as mouse leukemia P388 and P388/ADR cells; for anticancer activities against various human cancer cells compared with adriamycin: in vitro
Method: as §1, §2

[10] = human, in vivo; cited from earlier work

Structure (SMILES) | Increase (%) in life-span (T/C, %) (Leukemia L-1210 cells; 0.15 mg/kg/day) [%] | Increase (%) in life-span (T/C, %) (Leukemia L-1210 cells; 0.3 mg/kg/day) [%] | Increase (%) in life-span (T/C, %) (Leukemia L-1210 cells; 0.6 mg/kg/day) [%] | number of mice which survived for 60 days or longer / number tested (Leukemia L-1210 cells; 1.25 mg/kg/day) | Increase (%) in life-span (T/C, %) (Leukemia L-1210 cells; 1.25 mg/kg/day) [%] | Increase (%) in life-span (T/C, %) (Leukemia L-1210 cells; 2.5 mg/kg/day) [%] | Increase (%) in life-span (T/C, %) (Leukemia L-1210 cells; 5 mg/kg/day) [%] | antitumor activity against mouse Leukemia L-1210 cell compared with adriamycin (Leukemia L-1210 cells) | IC50 [1] [µg/mL] | IC50 [2] [µg/mL] | IC50 [3] [µg/mL] | IC50 [4] [µg/mL] | IC50 [5] [µg/mL] | IC50 [6] [µg/mL] | IC50 [7] [ng/mL] | anticancer activity, folds higher than that of adriamycin [8] [folds] | IC50 [8] [µg/mL] | solubility (Solubility in water) [mg/mL] | antitumor or anticancer activity compared with adriamycin [9] | anticancer activities against various human cancer cells compared with adriamycin [9] | other results
COc1cccc2c1C(=O)c1c(O)c3c(c(O)c1C2=O)C[C@@](O)(C(C)=O)C[C@@H]3O[C@@H]1O[C@@H](C)[C@@H](N)[C@@H](O)[C@H]1F [Compound (a), 7-O-(4-amino-2,4,6-trideoxy-2-fluoro-α-L-talopyranosyl)daunomycinone] | 127 | 152 | 182 | 2/4 | > 463 | 235 | 175 | substantially equal to or higher than that of adriamycin | 0.087 (≈ 0.159 µM) | 0.071 (≈ 0.13 µM) | 0.028 (≈ 0.0513 µM) | 0.12 (≈ 0.22 µM) | 0.17 (≈ 0.312 µM) | 0.047 (≈ 0.0862 µM) | < 9.8 | 29.1 | 0.086 (≈ 0.158 µM) | 10 (≈ 18300 µM) | higher antitumor or anticancer activities than those of adriamycin | remarkably improved anticancer activities | antitumor activity compared with daunomycin (Leukemia L-1210 cells; 0.6~1.25 mg/kg): antitumor activities higher than those of daunomycin
COc1cccc2c1C(=O)c1c(O)c3c(c(O)c1C2=O)C[C@@](O)(C(=O)CO)C[C@@H]3O[C@@H]1O[C@@H](C)[C@@H](N)[C@@H](O)[C@H]1F [Compound (b), 7-O-(4-amino-2,4,6-trideoxy-2-fluoro-α-L-talopyranosyl)adriamycinone] | 155 | > 400 | > 403 | 1/4 | > 330 | 139 | 92 | substantially equal to or higher than that of adriamycin | 0.063 (≈ 0.112 µM) | 0.056 (≈ 0.0997 µM) | 0.023 (≈ 0.041 µM) | 0.062 (≈ 0.11 µM) | 0.12 (≈ 0.214 µM) | 0.026 (≈ 0.0463 µM) | < 9.8 | 13.9 | 0.18 (≈ 0.321 µM) | 15 (≈ 26700 µM) | higher antitumor or anticancer activities than those of adriamycin | remarkably improved anticancer activities | antitumor activity (T/C, %) compared with daunomycin (Leukemia L-1210 cells; 0.15 mg/kg to 0.6 mg/kg): remarkably enhanced anticancer or antitumor activities; development of toxicity in words (Leukemia L-1210 cells; 0.3 mg/kg to 0.6 mg/kg): did not involve the development of toxicity; also recorded: the development of toxicities is not involved; number of mice which survived for 60 days or longer / number tested (Leukemia L-1210 cells; 0.3 mg/kg/day): 1/4; number of the mice surviving for 60 days (fully cured) (Leukemia L-1210 cells; 0.3 mg/kg~0.6 mg/kg, pooled): two in eight; number of mice which survived for 60 days or longer / number tested (Leukemia L-1210 cells; 0.6 mg/kg/day): 1/4; antitumor activity compared with adriamycin (Leukemia L-1210 cells; 0.3~0.6 mg/kg, adriamycin at 0.3~0.6 mg/kg): markedly enhanced anticancer or antitumor activities; anticancer activity, folds higher than that of adriamycin ([1]; K562): 6.2 folds; anticancer activity, folds higher than that of adriamycin ([4]; MKN-1): 4 folds; anticancer activity, folds higher than that of adriamycin ([5]; PC-14): 5.2 folds; anticancer activity, folds higher than that of adriamycin ([6]; T24): 6.2 folds
COc1cccc2c1C(=O)c1c(O)c3c(c(O)c1C2=O)C[C@@](O)(C(C)=O)C[C@@H]3O[C@H]1C[C@H](N)[C@H](O)[C@H](C)O1 [Daunomycin, reference compound] | 132 | 112 | 145 |  | 158 | 171 | 138 |  |  |  |  |  |  |  |  |  |  |  |  |  | development of toxicity in words (Leukemia L-1210 cells; 2.5 to 5 mg/kg/day): accompanied by the development of toxicity; side-effects [10]: serious side-effects such as leukocytopenia, alopecia, myocardiopathy and others
